Reference: paper PMC5590943, “Pharmacological characterisation of S 47445, a novel positive allosteric modulator of AMPA receptors” (PLoS ONE, 2017)

What was measured:
[1] = target: GluA1flop/GluA2flip (GluA1o/2i) AMPA receptors (Homo sapiens, UniProt P42261+P42262, Q607R); experiment: Whole cell patch clamp recordings in transiently transfected HEK-293 cells; conditions: 0.1 μM S 47445
[2] = system: male NMRI mice; experiment: Spontaneous locomotor activity in mice; assay type: in vivo, mouse; conditions: 10, 30 and 100 mg/kg p.o. acute
Protocol: Locomotor activity was measured in male NMRI mice (18–20 g, Janvier Labs, Le Genest Saint Isle, France) placed in open-fields equipped with infrared sensors (Imetronic, Pessac, France). Two parameters were automatically computed: the global locomotor activity and the number of rearing by counting the number of times the animal cut photocells. Mice were placed in the apparatus 30 min after oral administration of S 47445 (10, 30 and 100 mg/kg) or vehicle. Spontaneous locomotor activity was recorded for 60 min divided in 6 x 10-min periods. The global locomotor activity was analysed using two way ANOVA (dose x time) followed by Dunnett’s post hoc test. Analyses were performed using SAS v9.2 software (SAS Institute, Cary, NC).

[3] = system: male NMRI mice; experiment: Functional observation battery in mice; assay type: in vivo, mouse
Protocol: The effect of 47445 after high doses administration was assessed on general behaviour in mice. Male NMRI mice (18–22 g, Janvier Labs, Le Genest Saint Isle, France) were used and placed individually for habituation, 15 min before administration. Room temperature was maintained at 20.9°C during experimentation. At T0 min, body temperature was monitored via a rectal probe connected to a computer (Viewpoint). Mice were then orally treated with S 47445 (30, 100 and 300 mg/kg) or vehicle. […] Delta of body temperature compared to T0 min (°C) was calculated. Groups were compared for body temperature at T0 min with a one-way ANOVA followed by Tukey’s pair-wise comparison post hoc tests. The treatment effect on delta of body temperature compared to T0 min was analysed using a two-way ANOVA followed by Dunnett’s post hoc tests. Analyses were performed using SAS v9.2 software (SAS Institute, Cary, NC).

[4] = system: rat primary cortical cell cultures; experiment: LDH release toxicity assay on rat primary cortical cell cultures; conditions: S 47445 10 μM
[5] = system: PDE3 (h); experiment: Enzyme and cell-based assay, [3H]cAMP + cAMP (0.1 μM)
[6] = system: ATPase (Na+/K+); experiment: Enzyme and cell-based assay, ATP (2 mM)
[7] = target: p38a kinase (h) (Homo sapiens, UniProt Q16539); experiment: Enzyme and cell-based assay, ATP + ATF-2 (0.1 μM)
Chain of p38a kinase (h) (Q16539 whole entry): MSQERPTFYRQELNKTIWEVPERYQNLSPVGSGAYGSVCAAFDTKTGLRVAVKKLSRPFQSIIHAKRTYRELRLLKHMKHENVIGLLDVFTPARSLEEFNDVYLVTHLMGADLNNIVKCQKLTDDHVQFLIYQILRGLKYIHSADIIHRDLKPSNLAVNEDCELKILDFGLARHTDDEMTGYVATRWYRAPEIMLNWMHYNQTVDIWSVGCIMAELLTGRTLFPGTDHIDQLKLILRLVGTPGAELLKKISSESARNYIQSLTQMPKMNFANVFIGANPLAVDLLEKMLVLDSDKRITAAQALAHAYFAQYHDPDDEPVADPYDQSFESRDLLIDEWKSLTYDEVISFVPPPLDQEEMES

[8] = system: Guanylyl cyclase (stimulated); experiment: Enzyme and cell-based assay, GTP (0.1 mM) / SNP (10 μM)
[9] = target: human GluK2 kainate receptors (Homo sapiens, UniProt Q13002); experiment: Glutamate-evoked current in oocytes expressing kainate receptors; conditions: up to 100 μM; n = 12
Chain of human GluK2 kainate receptors (Q13002 32-908): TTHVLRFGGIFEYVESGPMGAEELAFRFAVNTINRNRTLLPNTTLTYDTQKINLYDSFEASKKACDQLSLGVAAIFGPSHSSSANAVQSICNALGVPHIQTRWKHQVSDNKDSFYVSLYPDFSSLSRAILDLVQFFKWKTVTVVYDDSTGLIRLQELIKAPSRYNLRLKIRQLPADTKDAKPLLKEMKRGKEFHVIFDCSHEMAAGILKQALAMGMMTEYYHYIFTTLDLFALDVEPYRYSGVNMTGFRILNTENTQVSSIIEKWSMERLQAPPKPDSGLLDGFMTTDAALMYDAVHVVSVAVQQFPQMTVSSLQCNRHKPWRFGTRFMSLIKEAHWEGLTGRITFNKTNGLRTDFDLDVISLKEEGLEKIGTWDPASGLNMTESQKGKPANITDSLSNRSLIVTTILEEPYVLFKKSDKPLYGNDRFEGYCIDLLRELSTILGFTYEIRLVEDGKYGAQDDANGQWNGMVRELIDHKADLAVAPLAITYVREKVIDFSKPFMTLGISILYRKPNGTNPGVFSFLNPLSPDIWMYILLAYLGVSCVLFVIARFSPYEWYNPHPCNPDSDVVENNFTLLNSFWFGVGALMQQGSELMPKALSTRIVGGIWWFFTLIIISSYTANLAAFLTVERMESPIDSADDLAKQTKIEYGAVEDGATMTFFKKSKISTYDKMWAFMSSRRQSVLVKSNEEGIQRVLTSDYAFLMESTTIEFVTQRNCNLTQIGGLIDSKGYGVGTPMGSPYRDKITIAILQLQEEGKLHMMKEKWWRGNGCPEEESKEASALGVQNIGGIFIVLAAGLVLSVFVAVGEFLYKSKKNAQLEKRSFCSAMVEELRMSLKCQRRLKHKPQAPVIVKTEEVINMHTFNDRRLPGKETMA

[10] = system: I2; experiment: Binding assay, [3H]idazoxan
[11] = system: about a hundred receptors, enzymes, transporters and channels; experiment: CEREP panel, competition binding and enzyme assays
[12] = system: Human AMPA receptors; experiment: AMPA-evoked currents, Xenopus laevis oocytes injected with human hippocampal poly(A+) mRNA; assay type: cell-based; conditions: geometric mean
Protocol: Compounds were tested by bath application.

[13] = system: Phospholipase C; experiment: Enzyme and cell-based assay, [3H]PIP2 (0.3 mM)
[14] = system: BZD (central); experiment: Binding assay, [3H]flunitrazepam
[15] = system: PDE1; experiment: Enzyme and cell-based assay, [3H]cAMP + cAMP (1 μM)

Chain of GluA1flop/GluA2flip (GluA1o/2i) AMPA receptors (P42261 19-906): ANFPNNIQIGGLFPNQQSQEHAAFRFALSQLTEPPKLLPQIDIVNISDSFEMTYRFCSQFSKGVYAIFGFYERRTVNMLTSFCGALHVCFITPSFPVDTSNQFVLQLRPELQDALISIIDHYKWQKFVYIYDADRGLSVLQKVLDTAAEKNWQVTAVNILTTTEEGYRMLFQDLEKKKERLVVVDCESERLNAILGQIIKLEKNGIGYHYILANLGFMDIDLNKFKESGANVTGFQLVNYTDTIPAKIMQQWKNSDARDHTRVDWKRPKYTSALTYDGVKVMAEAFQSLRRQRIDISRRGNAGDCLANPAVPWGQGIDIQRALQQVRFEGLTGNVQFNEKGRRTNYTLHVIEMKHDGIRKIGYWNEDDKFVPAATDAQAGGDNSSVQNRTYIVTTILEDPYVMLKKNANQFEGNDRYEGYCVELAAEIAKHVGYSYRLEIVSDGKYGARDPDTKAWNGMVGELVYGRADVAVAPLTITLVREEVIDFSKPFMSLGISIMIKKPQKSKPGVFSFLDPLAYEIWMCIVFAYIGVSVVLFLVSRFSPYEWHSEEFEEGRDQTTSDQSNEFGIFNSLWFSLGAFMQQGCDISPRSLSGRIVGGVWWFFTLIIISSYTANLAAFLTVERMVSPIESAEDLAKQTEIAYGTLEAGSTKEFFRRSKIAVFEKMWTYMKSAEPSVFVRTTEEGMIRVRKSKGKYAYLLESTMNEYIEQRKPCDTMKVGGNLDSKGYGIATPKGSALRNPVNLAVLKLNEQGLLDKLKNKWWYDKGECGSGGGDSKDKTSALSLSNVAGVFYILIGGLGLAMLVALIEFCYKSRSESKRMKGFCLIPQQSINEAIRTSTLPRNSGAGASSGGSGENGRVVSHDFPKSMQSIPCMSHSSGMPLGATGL
Chain of GluA1flop/GluA2flip (GluA1o/2i) AMPA receptors (P42262 25-883 isoform P42262-2 Q607R): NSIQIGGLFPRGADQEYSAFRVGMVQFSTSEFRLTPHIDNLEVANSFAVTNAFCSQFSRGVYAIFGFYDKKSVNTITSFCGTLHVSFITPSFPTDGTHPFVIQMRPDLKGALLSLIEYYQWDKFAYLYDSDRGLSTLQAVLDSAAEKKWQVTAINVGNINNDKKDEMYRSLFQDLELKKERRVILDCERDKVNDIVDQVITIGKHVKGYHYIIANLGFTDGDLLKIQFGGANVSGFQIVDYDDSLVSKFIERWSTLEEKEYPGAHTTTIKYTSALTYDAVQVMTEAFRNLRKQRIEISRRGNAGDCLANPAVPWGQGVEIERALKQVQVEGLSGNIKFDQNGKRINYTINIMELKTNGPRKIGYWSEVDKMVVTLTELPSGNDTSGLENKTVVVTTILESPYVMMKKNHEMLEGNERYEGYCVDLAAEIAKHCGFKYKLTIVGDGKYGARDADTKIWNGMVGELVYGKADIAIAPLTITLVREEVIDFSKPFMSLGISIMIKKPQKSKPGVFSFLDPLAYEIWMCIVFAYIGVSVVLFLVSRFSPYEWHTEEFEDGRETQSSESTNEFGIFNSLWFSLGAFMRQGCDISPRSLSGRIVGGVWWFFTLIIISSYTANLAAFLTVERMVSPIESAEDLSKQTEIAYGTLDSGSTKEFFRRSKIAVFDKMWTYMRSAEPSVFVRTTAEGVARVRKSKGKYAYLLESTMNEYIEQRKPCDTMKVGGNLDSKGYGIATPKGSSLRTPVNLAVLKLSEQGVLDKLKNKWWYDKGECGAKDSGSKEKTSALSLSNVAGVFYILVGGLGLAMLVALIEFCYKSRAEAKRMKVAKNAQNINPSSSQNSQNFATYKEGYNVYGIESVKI

SMILES: O=C1c2cc3nnn(CCc4cccc(F)c4)c(=O)c3cc2OCN1C1CC1 [S 47445, 8-cyclopropyl-3-[2-(3-fluorophenyl)ethyl]-7,8-dihydro-3H-[1,3]oxazino[6,5-g][1,2,3]benzotriazine-4,9-dione]
- Leftward shift in the EC50 of glutamate [1]: about 16 fold
- Amplitude of the glutamate response in presence of S 47445 ([1]; control 94.7 ± 32.8 pA): 247 ± 70 pA
- Global spontaneous locomotor activity [2]: did not significantly modify
- Number of rearing [2]: did not influence
- Body temperature and behavior ([3]; 30, 100 and 300 mg/kg oral acute): no significant effect
- Spontaneous epileptic seizures ([3]; up to 300 mg/kg p.o.): No occurrence
- Reduction of glutamate-induced LDH activity ([4]; glutamate 50 μM): 32.2%
- Reduction of glutamate-induced LDH activity ([4]; glutamate 75 μM): 50.9%
- Reduction of glutamate-induced LDH activity ([4]; glutamate 100 μM): 49.0%
- % Inhibition of control specific binding ([5]; S 47445 1.0E-05 M): -5%
- % Inhibition of control specific binding ([5]; S 47445 1.0E-07 M): 0%
- % Inhibition of control specific binding ([6]; S 47445 1.0E-05 M): -2%
- % Inhibition of control specific binding ([6]; S 47445 1.0E-07 M): -3%
- % Inhibition of control specific binding ([7]; S 47445 1.0E-05 M): 4%
- % Inhibition of control specific binding ([7]; S 47445 1.0E-07 M): 2%
- % Inhibition of control specific binding ([8]; S 47445 1.0E-05 M): 7%
- % Inhibition of control specific binding ([8]; S 47445 1.0E-07 M): -14%
- Effect on glutamate-evoked current [9]: did not modify glutamate-evoked current
- % Inhibition of control specific binding ([10]; S 47445 1.0E-05 M): 29%
- % Inhibition of control specific binding ([10]; S 47445 1.0E-07 M): -5%
- Percentage of inhibition of control value ([11]; 10 μM S 47445, all assays of S1 Table): lower than 50%
- Ki ([11]; read-out: Ki values in all these assays, inferred from <50% inhibition at 10 μM): > 10 µM
- EC2X ([12]; concentration giving a two-fold increase in current amplitude): 4.77 µM
- EC50 ([12]; potentiation of 10 μM AMPA-evoked current): 7.08 µM
- % Inhibition of control specific binding ([13]; S 47445 1.0E-05 M): 7%
- % Inhibition of control specific binding ([13]; S 47445 1.0E-07 M): -5%
- % Inhibition of control specific binding ([14]; S 47445 1.0E-05 M): -21%
- % Inhibition of control specific binding ([14]; S 47445 1.0E-07 M): -2%
- % Inhibition of control specific binding ([15]; S 47445 1.0E-05 M): 10%
- % Inhibition of control specific binding ([15]; S 47445 1.0E-07 M): 1%
